# Assay results from patent EP0178388A1, “Quinolinecarboxylic acid derivatives” (KYORIN PHARMACEUTICAL CO., LTD., priority 1984, dated 1986).
# Like-named read-outs stand apart in the source and are kept apart here.
# Legend:
# B. fragilis 25285 = test: In vitro antibacterial activity, MIC (standard strain); format: cell-based; details: Bacteroides fragilis, 25285
# [1] = tested on: Bacillus subtilis PCI 219; test: as above; format: cell-based; details: PCI219
# [2] = tested on: Pseudomonas aeruginosa V-1; test: as above; format: cell-based; details: V1
# [3] = tested on: B. thetaiotaomicron (0661); test: as above; format: cell-based; details: Bacteroides thetaiotaomicron
# C. ramosum = test: as above; format: cell-based; details: Thomasclavelia ramosa
# [4] = tested on: Citrobacter freundii IID 976; test: as above; format: cell-based; details: IID976
# K. pneumoniae KY(GN)6445 = test: as above; format: cell-based; details: Klebsiella pneumoniae
# [5] = tested on: Escherichia coli NIHJ JC-2; test: as above; format: cell-based; details: NIHJJC2, Escherichia coli NIHJ JC-2, 10^6 cells/ml
# P. morganii IID 602 = test: as above; format: cell-based; details: Morganella morganii, IID602
# [6] = tested on: Proteus vulgaris IFO 3167; test: as above; format: cell-based; details: IFO3167
# [7] = tested on: Klebsiella pneumoniae I-220S; test: as above; format: cell-based; details: Klebsiella pneumoniae
# [8] = tested on: Salmonella enteritidis IID 604; test: as above; format: cell-based; details: Salmonella enterica
# [9] = tested on: Acinetobacter anitratus IID 876; test: as above; format: cell-based; details: Acinetobacter calcoaceticus, IID876
# E. coli ML4707 [10] = test: In vivo antibacterial activity against systemic infection in mice;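 also: ED50 in mg/kg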; details: Escherichia coli, ML4707, po, 1 h, E. coli ML4707, mice (ICR-S), intraperitoneal infection, oral at 1 hour after infection
# Protocol: (§1) Experiment 2 In vivo antibacterial activity against systemic infection in mice (ICR-S)
# (§2) The infections were produced by intraperitoneal infection of a suspension of the bacterial culture corresponding to the germ studied. The product was administered orally at 1 hour after the infection. The 50% effective dose (ED50) which protects 50% of the animals from death caused by the infection was determined from the relation between dosage and survival rate.
# S. aureus Smith = test: as above; design: species or system mice (ICR-S); details: Staphylococcus aureus, po, 1 h;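 also: ED50 in mg/kg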
# Protocol: as §1, §2
# S. pneumoniae S-4288 = test: as above; design: species or system mice (ICR-S); details: Streptococcus pneumoniae, S4288, po, 1 h
# Protocol: as §1, §2
# P. aeruginosa IID 1210 = test: as above; design: species or system mice (ICR-S); details: Pseudomonas aeruginosa, IID1210, po, 1 h;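 also: ED50 in mg/kg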
# Protocol: as §1, §2
# B. fragilis 0558 = test: In vitro antibacterial activity, MIC (standard strain); format: cell-based; details: Bacteroides fragilis, 0558
# Shigella sonnei IID 969 = test: as above; format: cell-based; details: IID969, Shigella sonnei IID 969, 10^6 cells/ml
# Protocol: (§3) The in vitro antibacterial activity has been investigated, the minimun inhibitory concentration (MIC) was determined in accordance with the method recommended by Japan Society of Chemotherapy.
# [11] = tested on: Yersinia enterocolitica IID 981; test: as above; format: cell-based; details: IID981
# [12] = tested on: Bacteroides fragilis GM 7000; test: as above; format: cell-based; details: GM7000
# [13] = tested on: Peptostreptococcus anaerobius KYA 27337; test: as above; format: cell-based; details: KYA27337, Peptostreptococcus anaerobius KYA 27337, 10^6 cells/ml
# [14] = tested on: Staphylococcus aureus 209 P; test: as above; format: cell-based; details: 10^6 cells/ml, read-out: MIC
# [15] = tested on: Veillonella parvula KYA 10790; test: as above; format: cell-based; details: KYA10790, Veillonella parvula KYA 10790, 10^6 cells/ml
# Pst. micros UPI 5464-1 = test: as above; format: cell-based; details: Parvimonas micra, UPI54641, Pst. micros UPI 5464-1, 10^6 cells/ml
# [16] = tested on: Alcaligenes faecalis 0114002; test: as above; format: cell-based; details: Alcaligenes faecalis 0114002, 10^6 cells/ml
# [17] = tested on: Enterobacter cloacae IID 977; test: as above; format: cell-based; details: IID977, Enterobacter cloacae IID 977, 10^6 cells/ml
# [18] = tested on: F. varium KYA (ATCC) 8501; test: as above; format: cell-based; details: Fusobacterium varium, F. varium KYA (ATCC) 8501, 10^6 cells/ml
# S. epidermidis IID 866 = test: as above; format: cell-based; details: Staphylococcus epidermidis, IID866, S. epidermidis IID 866, 10^6 cells/ml
# [19] = tested on: S. aureus IID 670 (Terajima); test: as above; format: cell-based; details: Staphylococcus aureus, IID670, 10^6 cells/ml
# P. aeruginosa IFO 12689 = test: as above; format: cell-based; details: Pseudomonas aeruginosa, IFO12689
# [20] = tested on: Clostridium difficile I-E; test: as above; format: cell-based; details: Clostridioides difficile, 10^6 cells/ml
# [21] = tested on: C. perfringens KYA (ATCC) 13123; test: microbe, parasite or virus in culture; format: cell-based; details: Clostridium perfringens
# B. distasonis 8503 = test: In vitro antibacterial activity, MIC (standard strain); format: cell-based; details: Parabacteroides distasonis, B. distasonis 8503, 10^6 cells/ml
# E. coli ATCC 10536 = test: as above; format: cell-based; details: Escherichia coli, ATCC10536; E. coli ATCC 10536, 10^6 cells/ml, standard strain; read-out: MIC
# [22] = tested on: Serratia marcescens IID 618; test: as above; format: cell-based; details: IID618, Serratia marcescens IID 618, 10^6 cells/ml, read-out: MIC
# P. mirabilis IID 994 = test: as above; format: cell-based; details: Proteus mirabilis, IID994, P. mirabilis IID 994, 10^6 cells/ml
# E. coli ML4707 [23] = test: MIC against the infecting strain (Table 2); format: cell-based; details: Escherichia coli; E. coli ML4707 (Table 2, parts 1 and 2)
# Protocol: as §3
smiles,measurement,setting,value
"O=C(O)c1cn(C2CC2)c2cc(N3CCNCC3)c(F)cc2c1=O [CFLX, 1-Cyclopropyl-6-fluoro-1,4-dihydro-4-oxo-7-(1-piperazinyl)-quinoline-3-carboxylic acid, reference compound]",MIC,B. fragilis 25285,3.13 mg/L
same,MIC,[1]; Bacillus subtilis,0.05 mg/L
same,MIC,[2]; Pseudomonas aeruginosa,0.2 mg/L
same,MIC,[3],3.13 mg/L
same,MIC,C. ramosum,3.13 mg/L
same,MIC,[4]; Citrobacter freundii,≤ 0.006 mg/L
same,MIC,K. pneumoniae KY(GN)6445,0.025 mg/L
same,MIC,[5],≤ 0.006 mg/L
same,MIC,P. morganii IID 602,0.05 mg/L
same,MIC,[6]; Proteus vulgaris,≤ 0.006 mg/L
same,MIC,[7],0.05 mg/L
same,MIC,[8],0.025 mg/L
same,MIC,[9],0.025 mg/L
same,ED50,E. coli ML4707 [10]; challenge dose 6.0 x 10^6 cfu/mouse (part 1),0.67 mg/kg
same,ED50,E. coli ML4707 [10]; challenge dose 8.3 x 10^6 cfu/mouse (part 2),0.75 mg/kg
same,ED50,S. aureus Smith,12.8 mg/kg
same,ED50,S. pneumoniae S-4288,> 100 mg/kg
same,ED50,P. aeruginosa IID 1210,8 mg/kg
same,MIC,B. fragilis 0558,3.13 mg/L
same,MIC,Shigella sonnei IID 969,≤ 0.006 mg/L
same,MIC,[11]; Yersinia enterocolitica,0.05 mg/L
same,MIC,[12]; Bacteroides fragilis,3.13 mg/L
"CC1CN(c2c(F)cc3c(=O)c(C(=O)O)cn(C4CC4)c3c2F)CC(C)N1 (stereo not drawn) [Example 4, 1-Cyclopropyl-6,8-difluoro-1,4-dihydro-7-(3,5-dimethyl-l-piperazinyl)-4-oxoquinoline-3-carboxylic acid]",MIC,B. fragilis 25285,1.56 mg/L
same,MIC,[13],3.13 mg/L
same,MIC,[14],0.2 mg/L
same,MIC,[15],0.39 mg/L
same,MIC,Pst. micros UPI 5464-1,0.39 mg/L
same,MIC,[16],0.2 mg/L
same,MIC,[17],0.05 mg/L
same,MIC,"[1]; Bacillus subtilis PCI 219, 10^6 cells/ml, standard strain, read-out: MIC",0.05 mg/L
same,MIC,"[2]; Pseudomonas aeruginosa V-1, 10^6 cells/ml, standard strain, read-out: MIC",0.39 mg/L
same,MIC,"[3]; B. thetaiotaomicron (0661), 10^6 cells/ml, standard strain, read-out: MIC",6.25 mg/L
same,MIC,"[4]; Citrobacter freundii IID 976, 10^6 cells/ml, standard strain, read-out: MIC",0.025 mg/L
same,MIC,[18],12.5 mg/L
same,MIC,"K. pneumoniae KY(GN)6445; K. pneumoniae KY(GN)6445, 10^6 cells/ml, standard strain, read-out: MIC",0.025 mg/L
same,MIC,[5],≤ 0.025 mg/L
same,MIC,S. epidermidis IID 866,0.39 mg/L
same,MIC,"P. morganii IID 602; P. morganii IID 602, 10^6 cells/ml, standard strain, read-out: MIC",0.1 mg/L
same,MIC,"[6]; Proteus vulgaris IFO 3167, 10^6 cells/ml, standard strain, read-out: MIC",0.025 mg/L
same,MIC,[19],0.2 mg/L
same,MIC,"[8]; Salmonella enteritidis IID 604, 10^6 cells/ml, standard strain, read-out: MIC",0.05 mg/L
same,MIC,"[9]; Acinetobacter anitratus IID 876, 10^6 cells/ml, standard strain, read-out: MIC",0.006 mg/L
same,MIC,P. aeruginosa IFO 12689,1.56 mg/L
same,ED50,"E. coli ML4707 [10]; challenge dose 6.0 x 10^6 cfu/mouse (part 1), read-out: ED50",0.13 mg/kg
same,MIC,[20],12.5 mg/L
same,MIC,[21],1.56 mg/L
same,MIC,B. fragilis 0558,1.56 mg/L
same,MIC,Shigella sonnei IID 969,0.0125 mg/L
same,MIC,B. distasonis 8503,3.13 mg/L
same,MIC,E. coli ATCC 10536,≤ 0.006 mg/L
same,MIC,[22],0.1 mg/L
same,MIC,"[11]; Yersinia enterocolitica IID 981, 10^6 cells/ml, standard strain, read-out: MIC",0.1 mg/L
same,MIC,"[12]; Bacteroides fragilis GM 7000, 10^6 cells/ml, standard strain, read-out: MIC",3.13 mg/L
same,MIC,P. mirabilis IID 994,0.1 mg/L
same,MIC,E. coli ML4707 [23],0.0125 mg/L
